Reference: patent US10806711B2 (priority 2011, dated 2020)
“Also recorded” adds a separate entry of the source.

How the values were obtained:
[1] = system: isolated ventricular myocytes; experiment: Myocyte Ca2+ transient and cytosolic Ca2+ measurement; format: cell-based, mouse
Experimental: Isolation of ventricular myocytes—Hearts from WT mice (12-week old) were perfused on the Langendorff system with a modified Krebs-Henseleit buffer (KHB) composed of (mM) NaCl 118, KCl 5.4, HEPES 10, NaH2PO4 0.33, MgCl2 2, glucose 10, taurine 30, butanedione monoxime 10 (pH=7.4). Then an enzyme solution (KHB containing 0.7 mg/ml type II collagenase, 0.1% BSA and 25 μM CaCl2) was used to digest the hearts for 10 min. Finally, ventricles of the hearts were excised, minced and filtered to obtain isolated cells. After sufficient sedimentation, the supernatant was removed and the cells were resuspended.
Myocyte Ca^2+ transient and cytosolic Ca^2+ measurement—Myocytes were loaded with Fluo-4 acetoxymethyl ester (7 μM) for 20 min at room temperature, followed by a 10 min wash with Tyrode's solution, and then placed onto a plexiglass chamber for recording. For Ca^2+ transient measurements, myocytes were excited under 0.5 Hz and 3 Hz field stimulation, and the fluorescence signals were obtained using a Nikon TE 2000 microscope and collected through an InCyt Standard photometry system. For cytosolic Ca^2+ analysis in quiescent myocytes, a Zeiss LSM 510 confocal microscope was used to record fluorescent images from resting myocytes. Line-scan mode was applied at 3.07 ms intervals with 512 pixels spaced at 0.056 μm. Drugs were dissolved in Tyrode's solution and perfused into the chamber. Images of myocytes were recorded every 30 s after drug application. Data analysis was performed using Clampfit 9.2 and Image J 1.44 software.
Water soluble probenecid was used for all of the myocyte experiments.

HL-1 cells = format: cell-based
Experimental: Cell Viability Assays—Cell viability was assessed using the ApoTox-Glo Triplex Assay (Promega, Madison, Wis.) per manufacturer's instructions. Briefly, HL-1 cells were seeded in 96 well plates at a density of 1×10^4 cells/well and allowed to grow overnight in Claycomb media supplemented with 10% FBS, 100 U/ml penicillin/streptomycin, and 2 mM L-glutamine. […] GF-AFC viability was then added to ApoTox-Glo Assay Buffer at a ratio of 10 μl GF-AFC to 2.0 ml Assay Buffer and 20 μl of this mixture was added to each well and cells were incubated at 37° C. for 30 minutes. Fluorescence was measured at 400 nm (ex)/505 nm (em) and the data was normalized to untreated control cells.

[2] = system: isolated ventricular myocytes; experiment: Myocyte contractility measurement; format: cell-based, mouse; conditions: ruthenium red pretreatment, 10^−7 M probenecid
Experimental: Isolation of ventricular myocytes—Hearts from WT mice (12-week old) were perfused on the Langendorff system with a modified Krebs-Henseleit buffer (KHB) composed of (mM) NaCl 118, KCl 5.4, HEPES 10, NaH2PO4 0.33, MgCl2 2, glucose 10, taurine 30, butanedione monoxime 10 (pH=7.4). Then an enzyme solution (KHB containing 0.7 mg/ml type II collagenase, 0.1% BSA and 25 μM CaCl2) was used to digest the hearts for 10 min. Finally, ventricles of the hearts were excised, minced and filtered to obtain isolated cells. After sufficient sedimentation, the supernatant was removed and the cells were resuspended. Myocyte contractility measurement—Myocytes were put on a plexiglass chamber containing a Tyrode's solution composed of (mM) NaCl 140, KCl, 5.4, MgCl2 1, CaCl2 1.8, HEPES 5, glucose 10 (pH=7.4). Myocytes were excited under 0.5 Hz field stimulation. After reaching the steady state, myocyte shortening and the rates of shortening (+dL/dt) and relengthening (−dL/dt) were imaged with a CCD camera and monitored by a video-edge detector. Drugs were dissolved in Tyrode's solution and perfused into the chamber. Data were continuously collected through the PCLAMP 9 software. Water soluble probenecid was used for all of the myocyte experiments.

## C/C=C(/C)C(=O)O[C@H]1C(C)=C2[C@H]([C@@H]1OC(=O)CCCCCCC)[C@@](C)(OC(C)=O)C[C@H](OC(=O)CCC)[C@@]1(O)[C@H]2OC(=O)[C@@]1(C)O [thapsigargin]
[1]; thapsigargin 10^−6 M pretreatment 15 minutes, 10^−7 M probenecid
  effect on the change in cytosolic Ca2+ by probenecid: abolished

## CC(C)NCC(O)c1ccc(O)c(O)c1 (stereo not shown) [isoproterenol]
HL-1 cells; 1.0 mM, 24 hours
  cell death at 24 hours, compared with H2O2 positive control: substantial cell death; also recorded: indistinguishable from H2O2 positive controls
  cells still viable: less than 20%
HL-1 cells; 1.0 mM, after 4 and 8 hours of treatment
  cell death: significant amount of cell death
HL-1 cells; probenecid at supraphysiological, isoproterenol at clinically relevant concentrations
  cell death in HL-1 cells (Example 3 summary): increased cell death

## N.N.N.N.N.N.N.N.N.N.N.N.N.N.[Cl-].[Cl-].[Cl-].[Cl-].[Cl-].[Cl-].[O-2].[O-2].[Ru+3].[Ru+3].[Ru+4] [ruthenium red]
[2]
  effect of pretreatment on probenecid's effect on myocyte contractility: completely abolished
[1]; ruthenium red 1 μM applied, 0.1 μM probenecid
  effect on the increase of cytosolic Ca2+ by probenecid: fully blocked
